molecular target: T1, GlyT1 (Homo sapiens, UniProt P48067); test: Glycine Transporter 1 (GlyT1) uptake assay, scintillation proximity assay of [14C]-glycine uptake; format: cell-based; details: SPA, four parameter logistic fit, read-out: GlyT1 (pIC50) (converted)
T1 construct: expressed in transfected cells
T1 sequence (P48067 1-706): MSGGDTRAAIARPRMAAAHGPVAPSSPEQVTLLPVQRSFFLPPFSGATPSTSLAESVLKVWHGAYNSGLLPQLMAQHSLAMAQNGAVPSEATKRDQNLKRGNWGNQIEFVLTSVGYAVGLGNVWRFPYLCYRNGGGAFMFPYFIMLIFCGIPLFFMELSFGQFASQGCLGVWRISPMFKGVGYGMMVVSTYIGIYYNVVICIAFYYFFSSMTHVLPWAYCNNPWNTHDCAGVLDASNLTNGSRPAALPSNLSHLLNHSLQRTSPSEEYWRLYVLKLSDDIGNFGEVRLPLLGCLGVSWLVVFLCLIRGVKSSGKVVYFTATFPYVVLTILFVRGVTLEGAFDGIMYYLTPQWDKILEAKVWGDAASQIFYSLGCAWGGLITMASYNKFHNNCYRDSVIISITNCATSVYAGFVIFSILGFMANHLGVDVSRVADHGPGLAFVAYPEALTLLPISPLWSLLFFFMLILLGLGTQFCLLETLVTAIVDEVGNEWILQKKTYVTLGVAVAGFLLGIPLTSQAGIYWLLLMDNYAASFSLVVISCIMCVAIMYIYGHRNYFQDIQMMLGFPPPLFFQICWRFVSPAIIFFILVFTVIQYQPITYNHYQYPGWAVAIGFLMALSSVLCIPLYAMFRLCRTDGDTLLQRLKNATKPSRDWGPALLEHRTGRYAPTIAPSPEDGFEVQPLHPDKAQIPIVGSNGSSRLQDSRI
Procedure, shortened: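 IC50 values derive from four-parameter logistic curves fitted to dose-response data. Uptake of [14C]-glycine measured in scintillation proximity format.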

Row | IC50 [µM] | SMILES
1 | < 0.1 | CCS(=O)(=O)c1ccc(O[C@@H](C)C(F)(F)F)c(C(=O)N2Cc3cn(-c4cccc(F)c4Cl)nc3C2)c1 [Example 151, 2-(2-Chloro-3-fluorophenyl)-5-[5-(ethanesulfonyl)-2-{[(2S)-1 1 1-trifluoropropan-2-yl]oxy}benzoyl]-2H 4H 5H 6H-pyrrolo[3,4-c]pyrazole]
2 | < 0.1 | CS(=O)(=O)c1ccc(-c2cccc(F)c2)c(C(=O)N2Cc3cn(-c4ccccn4)nc3C2)c1 [Example 152, 2-{5-[2-(3-Fluorophenyl)-5-methanesulfonylbenzoyl]-2H 4H 5H 6H-pyrrolo[3,4-c]pyrazol-2-yl}pyridine]
3 | < 0.1 | CC(Oc1ccc(C#N)c(Cl)c1C(=O)N1CCc2nn(-c3cncc(F)c3)cc2C1)C(F)(F)F (centres unmarked) [Example 153, 2-Chloro-3-[2-(5-fluoropyridin-3-yl)-2H 4H 5H 6H 7H-pyrazolo[4,3-c]pyridine-5-carbonyl]-4-[(1 1 1-trifluoropropan-2-yl)oxy]benzonitrile]
4 | < 0.1 | COc1c(C#N)ccc(OC(C)C(F)(F)F)c1C(=O)N1CCc2nn(-c3cncc(F)c3)cc2C1 (centres unmarked) [Example 154, 3-[2-(5-Fluoropyridin-3-yl)-2H 4H 5H 6H 7H-pyrazolo[4,3-c]pyridine-5-carbonyl]-2-methoxy-4-[(1 1 1-trifluoropropan-2-yl)oxy]benzonitrile]
5 | 0.1 to 1 | N#Cc1ccc(OCC(F)(F)F)c(C(=O)N2CCc3nn(-c4ccncc4)cc3C2)c1Cl [Example 155, 2-Chloro-3-[2-(pyridin-4-yl)-2H 4H 5H 6H 7H-pyrazolo[4,3-c]pyridine-5-carbonyl]-4-(2 2 2-trifluoroethoxy)benzonitrile]
6 | < 0.1 | COc1c(C#N)ccc(OCC(F)(F)F)c1C(=O)N1CCc2nn(-c3ccncc3)cc2C1 [Example 156, 2-Methoxy-3-[2-(pyridin-4-yl)-2H 4H 5H 6H 7H-pyrazolo[4,3-c]pyridine-5-carbonyl]-4-(2 2 2-trifluoroethoxy)benzonitrile]
7 | > 10 | Cn1ncc2c1CN(C(=O)c1cc(S(C)(=O)=O)ccc1OCC1CC1)C2 [Example 157, 5-[2-(Cyclopropylmethoxy)-5-methanesulfonylbenzoyl]-1-methyl-1H 4H 5H 6H-pyrrolo[3,4-c]pyrazole]
8 | > 10 | Cn1ncc2c1CCN(C(=O)c1cc(S(C)(=O)=O)ccc1OCC1CC1)C2 [Example 158, 5-[2-(Cyclopropylmethoxy)-5-methanesulfonylbenzoyl]-1-methyl-1H 4H 5H 6H 7H-pyrazolo[4,3-c]pyridine]
9 | 1 to 10 | CS(=O)(=O)c1ccc(OCC2CC2)c(C(=O)N2Cc3cnn(-c4cccc(C(F)(F)F)c4)c3C2)c1 [Example 159, 5-[2-(Cyclopropylmethoxy)-5-methanesulfonylbenzoyl]-1-[3-(trifluoromethyl)phenyl]-1H 4H 5H 6H-pyrrolo[3,4-c]pyrazole]
10 | 1 to 10 | CS(=O)(=O)c1ccc(OCC2CC2)c(C(=O)N2CCc3c(cnn3-c3cccc(C(F)(F)F)c3)C2)c1 [Example 160, 5-[2-(Cyclopropylmethoxy)-5-methanesulfonylbenzoyl]-1-[3-(trifluoromethyl)phenyl]-1H 4H 5H 6H 7H-pyrazolo[4,3-c]pyridine]
11 | 1 to 10 | CC(Oc1ccc(S(C)(=O)=O)cc1C(=O)N1CCc2c(cnn2C)C1)C(F)(F)F (centres unmarked) [Example 161, 5-{5-Methanesulfonyl-2-[(1 1 1-trifluoropropan-2-yl)oxy]benzoyl}-1-methyl-1H 4H 5H 6H 7H-pyrazolo[4,3-c]pyridine]
12 | 0.1 to 1 | CC(Oc1ccc(S(C)(=O)=O)cc1C(=O)N1CCc2c(cnn2-c2cccc(C(F)(F)F)c2)C1)C(F)(F)F (centres unmarked) [Example 162, 5-{5-Methanesulfonyl-2-[(1 1 1-trifluoropropan-2-yl)oxy]benzoyl}-1-[3-(trifluoromethyl)phenyl]-1H 4H 5H 6H 7H-pyrazolo[4,3-c]pyridine]
13 | 0.1 to 1 | CC(Oc1ccc(S(C)(=O)=O)cc1C(=O)N1CCc2nn(-c3ccccc3)cc2C1)C(F)(F)F (centres unmarked) [Example 163, 5-{5-Methanesulfonyl-2-[(1 1 1-trifluoropropan-2-yl)oxy]benzoyl}-2-phenyl-2H 4H 5H 6H 7H-pyrazolo[4,3-c]pyridine]
14 | 0.1 to 1 | CC(Oc1ccc(S(C)(=O)=O)cc1C(=O)N1CCc2c(cnn2-c2ccccc2)C1)C(F)(F)F (centres unmarked) [Example 164, 5-{5-Methanesulfonyl-2-[(1 1 1-trifluoropropan-2-yl)oxy]benzoyl}-1-phenyl-1H 4H 5H 6H 7H-pyrazolo[4,3-c]pyridine]
15 | 1 to 10 | CS(=O)(=O)c1ccc(N2CCCCC2)c(C(=O)N2CCc3c(c(C(F)(F)F)nn3-c3ccccc3)C2)c1 [Example 165, 1-{4-Methanesulfonyl-2-[1-phenyl-3-(trifluoromethyl)-1H 4H 5H 6H 7H-pyrazolo[4,3-c]pyridine-5-carbonyl]phenyl}piperidine]
16 | 0.1 to 1 | Cc1nn(-c2ccccc2)c2c1CN(C(=O)c1cc(S(C)(=O)=O)ccc1N1CCCCC1)CC2 [Example 166, 1-(4-Methanesulfonyl-2-{3-methyl-1-phenyl-1H 4H 5H 6H 7H-pyrazolo[4,3-c]pyridine-5-carbonyl}phenyl)piperidine]
17 | 0.1 to 1 | Cc1c2c(nn1-c1ccccc1)CCN(C(=O)c1cc(S(C)(=O)=O)ccc1N1CCCCC1)C2 [Example 167, 1-(4-Methanesulfonyl-2-{3-methyl-2-phenyl-2H 4H 5H 6H 7H-pyrazolo[4,3-c]pyridine-5-carbonyl}phenyl)piperidine]
18 | 1 to 10 | CC(Oc1ccc(S(C)(=O)=O)cc1C(=O)N1CCc2c(c(C(F)(F)F)nn2-c2ccccc2)C1)C(F)(F)F (centres unmarked) [Example 168, 5-{5-Methanesulfonyl-2-[(1 1 1-trifluoropropan-2-yl)oxy]benzoyl}-1-phenyl-3-(trifluoromethyl)-1H 4H 5H 6H 7H-pyrazolo[4,3-c]pyridine]
19 | 0.1 to 1 | N#Cc1ccc(C2CCCC2)c(C(=O)N2CCc3nn(-c4ccccc4)cc3C2)c1 [Example 169, 4-Cyclopentyl-3-{2-phenyl-2H 4H 5H 6H 7H-pyrazolo[4,3-c]pyridine-5-carbonyl}benzonitrile]
20 | < 0.1 | CS(=O)(=O)c1ccc(C2CCCC2)c(C(=O)N2CCc3nn(-c4ccccc4)cc3C2)c1 [Example 170, 5-(2-Cyclopentyl-5-methanesulfonylbenzoyl)-2-phenyl-2H 4H 5H 6H 7H-pyrazolo[4,3-c]pyridine]
21 | 0.1 to 1 | O=C(c1cc(N2CCOC2=O)ccc1C1CCCC1)N1CCc2nn(-c3ccccc3)cc2C1 [Example 171, 3-(4-Cyclopentyl-3-{2-phenyl-2H 4H 5H 6H 7H-pyrazolo[4,3-c]pyridine-5-carbonyl}phenyl)-1 3-oxazolidin-2-one]
22 | 1 to 10 | CC(Oc1ccc(N2CCOC2=O)cc1C(=O)N1CCc2nn(-c3ccccc3)cc2C1)C(F)(F)F (centres unmarked) [Example 172, 3-(3-{2-Phenyl-2H 4H 5H 6H 7H-pyrazolo[4,3-c]pyridine-5-carbonyl}-4-[(1 1 1-trifluoropropan-2-yl)oxy]phenyl)-1 3-oxazolidin-2-one]
23 | 0.1 to 1 | [2H]C1(c2ccc(C#N)cc2C(=O)N2CCc3nn(-c4ccccc4)cc3C2)CCCC1 [Example 173, 4-[(1-^2H)Cyclopentyl]-3-{2-phenyl-2H 4H 5H 6H 7H-pyrazolo[4,3-c]pyridine-5-carbonyl}benzonitrile]
24 | 1 to 10 | N#Cc1ccc(C2CCC2)c(C(=O)N2CCc3nn(-c4ccccc4)cc3C2)c1 [Example 174, 4-Cyclobutyl-3-{2-phenyl-2H 4H 5H 6H 7H-pyrazolo[4,3-c]pyridine-5-carbonyl}benzonitrile]
25 | 0.1 to 1 | N#Cc1ccc(C2CCCC2)c(C(=O)N2CCc3nn(-c4ccccc4)cc3C2)c1F [Example 175, 4-Cyclopentyl-2-fluoro-3-{2-phenyl-2H 4H 5H 6H 7H-pyrazolo[4,3-c]pyridine-5-carbonyl}benzonitrile]
26 | < 0.1 | COc1c(C#N)ccc(OC(C)C(F)(F)F)c1C(=O)N1CCc2nn(-c3ccccc3)cc2C1 (centres unmarked) [Example 176, 2-Methoxy-3-{2-phenyl-2H 4H 5H 6H 7H-pyrazolo[4,3-c]pyridine-5-carbonyl}-4-[(1 1 1-trifluoropropan-2-yl)oxy]benzonitrile]
27 | 0.1 to 1 | CC(Oc1ccc(C#N)c(Cl)c1C(=O)N1CCc2nn(-c3ccc(F)cc3)cc2C1)C(F)(F)F (centres unmarked) [Example 177, 2-Chloro-3-[2-(4-fluorophenyl)-2H 4H 5H 6H 7H-pyrazolo[4,3-c]pyridine-5-carbonyl]-4-[(1 1 1-trifluoropropan-2-yl)oxy]benzonitrile]
28 | > 10 | N#Cc1ccc(C2(F)COC2)c(C(=O)N2CCc3nn(-c4ccccc4)cc3C2)c1F [Example 178, 2-Fluoro-4-(3-fluorooxetan-3-yl)-3-{2-phenyl-2H 4H 5H 6H 7H-pyrazolo[4,3-c]pyridine-5-carbonyl}benzonitrile]
29 | 0.1 to 1 | CC(Oc1ccc(C#N)c(Cl)c1C(=O)N1CCc2c(cnn2-c2ccc(F)cc2F)C1)C(F)(F)F (centres unmarked) [Example 179, 2-Chloro-3-[1-(2 4-difluorophenyl)-1H 4H 5H 6H 7H-pyrazolo[4,3-c]pyridine-5-carbonyl]-4-[(1 1 1-trifluoropropan-2-yl)oxy]benzonitrile]
